Data as given in patent US6060038A, “Radiolabeled farnesyl-protein transferase inhibitors” (Merck & Co., Inc., priority 1998, dated 2000).
Where a name gives a salt, the structure may show the parent alone.

Assays:
[1] = Radiochemical decomposition of stored radiotracer samples; type: physicochemical; details: stored for up to 90 minutes in sterile glass vial; saline/sodium bicarbonate
Procedure: The container used for the drug is described above. It consists of a sterile, pyrogen free glass vial with a crimp-sealed aluminum cap surrounding a rubber stopper. Samples of the radiotracer have been stored for up to 90 minutes and analyzed for radiochemical decomposition.

FPTase = assay: PET Imaging in Dogs: block of [^11 C]-Compound 1 radiotracer binding by infused FTI; type: in vivo, beagle dogs; details: 10 mpk infused over 5 minutes, radiotracer [^11 C]-Compound 1
Procedure: Kinetics of enzyme occupancy by an unlabeled FPTase inhibitor (test compound) is determined by this assay. Thus, FVB mice are injected the test compound at either 40 mpk or 10 mpk subcutaneously (0.1 mls). Thirty minutes prior to euthanasia, 3 nCi of tritiated farnesyl protein transferase inhibitor (radiotracer) was injected i.p. (0.2 mls 10% EtOH in 0.9% saline). Uninhibited binding of the radiotracer is determined by injection of the radiotracer in mice which have not received injection of the test compound. The mice are euthanized either 2 hours of 14 hours after injection of the test compound and lung, spleen, pancrease and blood are removed and processed as described above. Data are plotted as %-dose/g of tissue (wet weight). […]
Oxygen saturation of circulating blood is measured with a pulse oximeter (Nellcor Inc., Hayward, Calif.) placed on the tongue of the animal. […] EKG, heart rate, and core temperature are monitored continuously. […]
For uninhibited distribution of radiotracer, regions of interest (ROIs) are drawn on the reconstructed image includes the kidney cortex and a region of liver which is removed from the gallbladder images. […] Data are expressed as radioactivity per unit time per unit volume (μCi/cc/mCi injected dose). […]

| Compound | radiochemical decomposition on storage [1] | block of radiotracer binding (FPTase) |
| --- | --- | --- |
| [11CH3]S(=O)(=O)CC[C@H]1CN(c2cc(I)cc(CF)c2)C(=O)CN1Cc1cncn1Cc1ccc(C#N)cc1 [[^11 C]-Compound 1, (S)-1-(3-iodo-5-fluoromethylphenyl)-4-[1-(4-cyanobenzyl)-5-imidazolylmethyl]-5-[2-(^11 C-methanesulfonyl)ethyl]-2-piperazinone dihydrochloride] | No decomposition has been observed | – |
| CCCC[C@H]1CN(c2cccc(C)c2C)C(=O)CN1Cc1cncn1Cc1ccc(C#N)cc1.O=C(O)C(F)(F)F.O=C(O)C(F)(F)F [Compound 3, 5(S)-n-Butyl-4-[1-(4-cyanobenzyl)imidazol-5-ylmethyl]-1-(2,3-dimethylphenyl)piperazin-2-one ditrifluoroacetic acid salt] | – | completely block radiotracer binding |
